Laboratory results from the supplement of paper PMC13380429.

Assays:
Conditions in all cases: 72 h
Caco-2 [1] = experiment: cell viability relative to DMSO; higher = less toxic
Vero E6 [2] = experiment: as above
HepG2 [3] = experiment: as above
Calu-3 [4] = experiment: as above
U2OS [5] = experiment: as above
Caco-2 [6] = experiment: drug sensitivity score (DSS) for viability; higher = more toxic; extreme values may be limits of the assay
Vero E6 [7] = experiment: as above
HepG2 [8] = experiment: as above
Calu-3 [9] = experiment: as above
U2OS [10] = experiment: as above
Caco-2 [11] = experiment: relative viability EC50 (midpoint between 100% and the lowest measured viability); higher = less toxic
Vero E6 [12] = experiment: as above
HepG2 [13] = experiment: as above
Calu-3 [14] = experiment: as above
U2OS [15] = experiment: as above

| SMILES | cell viability (Caco-2 [1]; 1 nM) [%] | cell viability (Caco-2 [1]; 10 nM) [%] | cell viability (Caco-2 [1]; 100 nM) [%] | cell viability (Caco-2 [1]; 1000 nM) [%] | cell viability (Caco-2 [1]; 10000 nM) [%] | cell viability (Vero E6 [2]; 1 nM) [%] | cell viability (Vero E6 [2]; 10 nM) [%] | cell viability (Vero E6 [2]; 100 nM) [%] | cell viability (Vero E6 [2]; 1000 nM) [%] | cell viability (Vero E6 [2]; 10000 nM) [%] | cell viability (HepG2 [3]; 1 nM) [%] | cell viability (HepG2 [3]; 10 nM) [%] | cell viability (HepG2 [3]; 100 nM) [%] | cell viability (HepG2 [3]; 1000 nM) [%] | cell viability (HepG2 [3]; 10000 nM) [%] | cell viability (Calu-3 [4]; 1 nM) [%] | cell viability (Calu-3 [4]; 10 nM) [%] | cell viability (Calu-3 [4]; 100 nM) [%] | cell viability (Calu-3 [4]; 1000 nM) [%] | cell viability (Calu-3 [4]; 10000 nM) [%] | cell viability (U2OS [5]; 1 nM) [%] | cell viability (U2OS [5]; 10 nM) [%] | cell viability (U2OS [5]; 100 nM) [%] | cell viability (U2OS [5]; 1000 nM) [%] | cell viability (U2OS [5]; 10000 nM) [%] | drug sensitivity score (Caco-2 [6]) | drug sensitivity score (Vero E6 [7]) | drug sensitivity score (HepG2 [8]) | drug sensitivity score (Calu-3 [9]) | drug sensitivity score (U2OS [10]) | relative viability EC50 (Caco-2 [11]) [µM] | relative viability EC50 (Vero E6 [12]) [µM] | relative viability EC50 (HepG2 [13]) [µM] | relative viability EC50 (Calu-3 [14]) [µM] | relative viability EC50 (U2OS [15]) [µM] |
| --- | --- | --- | --- | --- | --- | --- | --- | --- | --- | --- | --- | --- | --- | --- | --- | --- | --- | --- | --- | --- | --- | --- | --- | --- | --- | --- | --- | --- | --- | --- | --- | --- | --- | --- | --- |
| O=C(CSc1nc2c(c(=O)n1-c1ccccc1)SCC2)Nc1ccc(-c2ccccc2)cn1 [IWP-L6] | 89.2 | 102 | 96.2 | 92.6 | 90.1 | 97 | 97.7 | 95.3 | 95.1 | 96.1 | 100 | 92.1 | 105 | 106 | 99.3 | 94.4 | 96.6 | 91.7 | 98.8 | 87.5 | 95.4 | 97.6 | 93.4 | 97.1 | 94.9 | 0 | 0 | 0 | 0 | 0 | > 10 | > 10 | > 10 | > 10 | > 10 |
| C[C@@H]1[C@H](O)[C@@H](C)/C=C/C=C/C=C/C=C/C=C/C=C/C=C/[C@H](O[C@@H]2O[C@H](C)[C@@H](O)[C@H](N)[C@@H]2O)C[C@@H]2O[C@](O)(C[C@@H](O)C[C@@H](O)[C@H](O)CC[C@@H](O)C[C@@H](O)CC(=O)O[C@H]1C)C[C@H](O)[C@H]2C(=O)O [amphotericin-b] | 106 | 91.1 | 108 | 100 | 98.6 | 101 | 102 | 103 | 101 | 99.6 | 97.4 | 102 | 101 | 101 | 101 | 98.4 | 105 | 95.7 | 103 | 99.5 | 101 | 97 | 101 | 97.6 | 101 | 0 | 0 | 0 | 0 | 0 | > 10 | > 10 | > 10 | > 10 | > 10 |
| CN(C)CCOC(c1ccccc1)c1ccccc1.Cn1c(=O)c2[nH]c(Cl)nc2n(C)c1=O [dimenhydrinate] | 96.3 | 88.1 | 88.1 | 104 | 99.5 | 93.8 | 99.7 | 96.2 | 100 | 103 | 95.7 | 103 | 110 | 107 | 106 | 103 | 94.4 | 97.2 | 99.2 | 98 | 102 | 96.5 | 98 | 102 | 106 | 0 | 0 | 0 | 0 | 0 | > 10 | > 10 | > 10 | > 10 | > 10 |
| CC(C)(C)C(=O)OCC(=O)[C@H]1CC[C@H]2[C@@H]3CCC4=CC(=O)CC[C@]4(C)[C@H]3CC[C@]12C [desoxycorticosterone-pivalate] | 104 | 97 | 103 | 99.7 | 95.3 | 102 | 99 | 101 | 99.8 | 101 | 97 | 98.8 | 95.7 | 89 | 98.2 | 98.9 | 90.9 | 98.6 | 89.2 | 101 | 101 | 98.1 | 99.1 | 99.4 | 97.9 | 0 | 0 | 0 | 0 | 0 | > 10 | > 10 | > 10 | > 10 | > 10 |
| CC(C)(Oc1ccc(CCNC(=O)c2ccc(Cl)cc2)cc1)C(=O)O [bezafibrate] | 102 | 95.7 | 96.8 | 98 | 94.3 | 106 | 105 | 101 | 104 | 93.4 | 98.1 | 93.1 | 91.5 | 97.4 | 102 | 110 | 98.5 | 108 | 97 | 98.4 | 102 | 97 | 96.2 | 94 | 98.3 | 0 | 0 | 0 | 0 | 0 | > 10 | > 10 | > 10 | > 10 | > 10 |
| Nc1ncnc2c1c(-c1cnc3[nH]ccc3c1)nn2C1CCCC1 [PP-121] | 105 | 100 | 90.5 | 43.6 | 13.1 | 99.5 | 104 | 102 | 73.7 | 9.3 | 121 | 106 | 104 | 58.3 | 11.4 | 98 | 100 | 85.7 | 33.4 | 15.3 | 104 | 98.5 | 97 | 48 | 1.6 | 12.1 | 8.9 | 10.2 | 14.2 | 11.6 | 0.596 | 1.43 | 1.05 | 0.355 | 0.933 |
| C[C@H]1[C@H](C)CC[C@]2(C(=O)O)CC[C@]3(C)C(=CC[C@@H]4[C@@]5(C)C[C@@H](O)[C@H](O)[C@@](C)(CO)[C@@H]5CC[C@]43C)[C@H]12 [asiatic-acid] | 101 | 104 | 89.2 | 94.2 | 95.6 | 106 | 111 | 106 | 93 | 105 | 83.4 | 80.2 | 78.6 | 90.2 | 88.9 | 98.3 | 93.2 | 106 | 90.6 | 97.5 | 98.1 | 105 | 95.6 | 104 | 96.9 | 0.4 | 0 | 0 | 0 | 0 | > 10 | > 10 | > 10 | > 10 | > 10 |
| N[C@H]1C(O)O[C@H](CO)[C@@H](O)[C@@H]1O (mixture of isomers) [glucosamine] | 88.8 | 91.8 | 95 | 96.6 | 100 | 108 | 103 | 101 | 97.7 | 105 | 112 | 106 | 109 | 100 | 112 | 101 | 107 | 97.2 | 101 | 105 | 97.6 | 99.9 | 94.2 | 96.4 | 95.7 | 0 | 0 | 0 | 0 | 0 | > 10 | > 10 | > 10 | > 10 | > 10 |
| CCCN[C@@H]1CCc2c(OC)cccc2[C@@H]1C [AJ76-(+)] | 104 | 97.8 | 96.4 | 86.8 | 96.7 | 97.8 | 104 | 96.6 | 99.6 | 91.3 | 88.5 | 100 | 103 | 103 | 94 | 100 | 95.9 | 96.8 | 96 | 114 | 102 | 105 | 95.7 | 95.9 | 98.8 | 0 | 0 | 0 | 0 | 0 | > 10 | > 10 | > 10 | > 10 | > 10 |
| CO[C@H]1/C=C/O[C@@]2(C)Oc3c(C)c(O)c4c(O)c(c(/C=N/N5CCN(C6CCCC6)CC5)c(O)c4c3C2=O)NC(=O)/C(C)=C\C=C\[C@H](C)[C@H](O)[C@@H](C)[C@@H](O)[C@@H](C)[C@H](OC(C)=O)[C@@H]1C [rifapentine] | 95.2 | 94.9 | 94.4 | 102 | 77.6 | 96.2 | 93.7 | 97 | 89.1 | 97.7 | 96.4 | 92.9 | 94 | 97.7 | 89.3 | 101 | 104 | 94.4 | 111 | 88.2 | 96.3 | 103 | 95.3 | 100 | 85.7 | 0.7 | 0 | 0 | 0 | 0.2 | > 10 | > 10 | > 10 | > 10 | > 10 |
| O=C(O)C(=O)CBr [3-bromopyruvate] | 95.5 | 97.1 | 96.5 | 97.2 | 97.9 | 96.7 | 96.6 | 96.9 | 96.7 | 92.8 | 104 | 92.1 | 100 | 99.7 | 101 | 102 | 98 | 105 | 98.9 | 94.2 | 97.7 | 99.4 | 98 | 102 | 104 | 0 | 0 | 0 | 0 | 0 | > 10 | > 10 | > 10 | > 10 | > 10 |
| CC1=C(C(=O)O)N2C(=O)[C@@H](NC(=O)[C@H](N)c3ccccc3)[C@H]2SC1 [cephalexin] | 95.2 | 94.6 | 100 | 98 | 115 | 95.8 | 100 | 96.7 | 101 | 103 | 101 | 97.1 | 92.7 | 95.2 | 105 | 94.8 | 101 | 88.4 | 112 | 94.9 | 99.2 | 91.5 | 99.1 | 94.7 | 104 | 0 | 0 | 0 | 0 | 0 | > 10 | > 10 | > 10 | > 10 | > 10 |
| Cc1cnc(C(=O)N[C@H]2CCCCC/C=C\[C@@H]3C[C@@]3(C(=O)NS(=O)(=O)C3CC3)NC(=O)[C@@H]3C[C@@H](Oc4nc5ccccc5c5ccccc45)CN3C2=O)cn1 [paritaprevir] | 110 | 94.8 | 103 | 95 | 99.1 | 99.8 | 93.9 | 97 | 94 | 98.8 | 108 | 96.8 | 105 | 94.7 | 109 | 110 | 108 | 107 | 99.9 | 102 | 105 | 105 | 107 | 94.8 | 96.4 | 0 | 0 | 0 | 0 | 0 | > 10 | > 10 | > 10 | > 10 | > 10 |
| CCCCc1nc(-c2ccc(OCCCN(CC)CC)cc2)cn1-c1ccc(Oc2ccc(Cl)cc2)cc1 [azeliragon] | 101 | 97 | 99.4 | 93.5 | 4.5 | 96.2 | 105 | 91.8 | 99.5 | 0 | 95.1 | 94.8 | 90.2 | 94 | 0.1 | 109 | 105 | 99.4 | 98.9 | 8.5 | 97.7 | 97.8 | 98.9 | 91 | 30.4 | 6.3 | 5.7 | 6.4 | 5.2 | 5.3 | 2.61 | 3.13 | 2.69 | 3.08 | 2.12 |
